The values that follow are results of earlier work, collected in article PMC13061384, “Rapid behavioral screening in the planarian Dugesia japonica is a biologically relevant system to study neurotoxicity of organophosphorus pesticides mixtures” (Frontiers in Toxicology, 2026).

For the data set the following is noted: ref PubChem.

With `CCOP(=S)(OCC)Oc1ccc([N+](=O)[O-])cc1` [PT, Parathion], the logP (commonly the decadic logarithm of the partition coefficient of the neutral form, usually between octanol and water) is listed as 3.8.
